Data as given in patent US20180360721A1, “PEPTIDE FOR STIMULATING MELANOGENESIS” (priority 2017, published 2018).
Where a SMILES comes first, the peptide text is derived from it.

System: B16F10 cells
Assay: MTT assay of cell viability
Format: cell-based, mouse
Conditions: different concentrations, 24, 48 or 72 hours
Description: B16F10 is a melanoma cell line isolated from mouse skin (American Type Culture Collection, USA) and was cultured in phenol red-free Dulbecco's Modified Eagle Medium (DMEM) containing 10% (v/v) FBS and penicillin/streptomycin (100 IU/[…]) in 5% CO2 at 37° C.
The cells (2×10^3) in 100 μl complete DMEM were seeded in 96-well plates and treated with the peptide of SEQ ID NO: 1 at different concentrations. The cells treated with ddH2O was used as controls. Ten microliters of 5 mg/ml 3-(4,5-dimethyl-2-thiazolyl)-2,5-diphenyl-2H-tetrazolium bromide solution (MTT; Sigma) was added to each well and incubated at 37° C. for 3 hours. After that, 100 μl 10% SDS in 0.01N HCl was added to dissolve the MTT formazan crystals. The resultant optical density was measured by spectrophotometry at dual wavelengths, 550 and 630 nm.

Compound: C[C@H](NC(=O)[C@H](CO)NC(=O)[C@@H](N)CC(N)=O)C(=O)N[C@H](C(=O)N[C@@H](CCC(=O)O)C(=O)N[C@@H](CCCNC(=N)N)C(=O)N[C@@H](CCC(=O)O)C(=O)O)[C@@H](C)O [peptide of SEQ ID NO: 1, AsnSerAlaThrGluArgGlu] (H-NSATERE-OH)
- cell viability (MTT): did not significantly affect the viability
- cell viability (MTT) (listed as peptide having the amino acid sequence of SEQ ID NO: 1): did not significantly affect viability
